From paper PMC6348444, “New Water-Soluble Copper(II) Complexes with Morpholine–Thiosemicarbazone Hybrids: Insights into the Anticancer and Antibacterial Mode of Action” (Journal of Medicinal Chemistry, 2018) come the findings set out here.

Series [1] is described as follows: n-octanol/water distribution coefficient, shake-flask. The series is classed as physicochemical. To be noted: n-octanol/buffered aqueous solution, pH 7.40, UV-vis. As for the experimental part: The titrations were carried out under a nitrogen atmosphere.
The subject of another series is A2780 cells. Briefly: Annexin V/PI apoptosis assay. The series is classed as cell-based, human. To be noted: 24 h. From the text: To elucidate if observed cytotoxicity of new compounds described in this study was a result of apoptosis induction, we conducted Annexin V/PI apoptosis assay. In brief, fluorochrome-labeled Annexin V reagent is used for detection of membrane phosphatidylserine (PS), which translocates to the cellular surface from the inner side of plasma membrane in the event of early apoptosis. Simultaneously, PI is used for detection of later stages of apoptosis or necrosis, which are characterized by loss of membrane integrity and accumulation of PI inside the cells. […] Results are illustrated in Figure 9. Upon incubation of A2780 cells with increasing concentrations of HL^2 and 2, the dose-dependent increase of apoptotic cells was observed.
A2780 cells were seeded into Cellstar 12-well plates (Greiner Bio-One) at a density of 20 × 10^4 cells/well (1 mL per well). The cells were allowed to resume exponential growth for 24 h and subsequently they were exposed to HL^2 and 2 at different concentrations for 24 h. After the supernatant solution was collected in 1.5 mL microtubes, the cells were washed with 100 μL of trypsin, which was combined with the supernatant. Subsequently, cells were trypsinized with 200 μL of trypsin for 5 min at 37 °C, 5% CO2, washed with 200 μL of PBS, and combined with the supernatant. The cells were centrifuged at 2.5 × 10^3 rpm for 5 min and the pellets were washed once with PBS and resuspended in 500 μL of Annexin V binding buffer and stained with Annexin V-FITC and PI reagents. The fluorescence was immediately analyzed by flow cytometry. The resulting dot blots were acquired from 10 000 events and quantified using Flowjo software (Flowjo LLC, Ashland, OR, USA).

In the next series the test system is A2780cisR cells. Briefly: MTT cytotoxicity assay, A2780cisR. The format is cell-based, human. The settings on record: for RF (resistance factor): IC50(A2780cisR)/IC50(A2780); for IC50: MTT assay, 72 h exposure, cisplatin-resistant A2780cisR, read-out: IC50 A2780cis. On the technique in general: Formazan colour is commonly taken as a measure of viable cells.

Regarding `CN(C)C(=NN=Cc1ccc(CN2CCOCC2)cn1)[S][Cu][Cl]` [complex 2, [Cu(L^2)Cl]], the “log D7.4” value in series [1] was “+0.30 ± 0.01”. Also, the apoptotic cells with A2780 cells (A2780, 2IC50 concentration) was 22.5 ± 5.3%; in the series with A2780 cells (A2780, 6IC50 concentration) it was 24.4 ± 7.8%. Also, the “RF (resistance factor)” value with A2780cisR cells stood at 2.5. Besides, in the series on A2780cisR cells, the IC50 (as a rule, the midpoint of a concentration-inhibition curve) amounted to 0.03 ± 0.003 µM.
Consider `[Cl][Cu][S]C(=NN=Cc1ccc(CN2CCOCC2)cn1)Nc1ccccc1` [complex 5, [Cu(L^5)Cl]], for which the “log D7.4” value in series [1] is on record as “+1.49 ± 0.06”. Further, in the series with A2780cisR cells, the “RF (resistance factor)” value was 1.9 and the IC50 came out at 0.017 ± 0.002 µM.
